Experimental data taken from ChEMBL document CHEMBL4196037, “Precise structures of fucosylated glycosaminoglycan and its oligosaccharides as novel intrinsic factor Xase inhibitors” (Eur J Med Chem, 2018).

Key:
[1] = target: Coagulation factor X (Bos taurus) (UniProt P00743); experiment: Inhibition of antithrombin-dependant bovine factor 10a activity at 2000 ng/ml preincubated for 1 mins followed by chromogenic substrate S10a-11 addition measured every 30 secs for 5 mins relative to control
Plasma [2] = experiment: Anticoagulant activity in human plasma assessed as concentration required for increase in clotting time after 2 mins by aPTT assay; assay type: functional
[3] = target: Coagulation factor IX/VIII (Homo sapiens, UniProt P00451+P00740); experiment: Inhibition of human intrinsic factor tenase using factor-10 as substrate preincubated for 2 mins followed by substrate addition for 1 min measured every 30 secs for 5 mins by chromogenic substrate S10a-11 based assay; assay type: protein-complex assay
Coagulation factor IX/VIII, sequence (P00451 20-759 limits assumed): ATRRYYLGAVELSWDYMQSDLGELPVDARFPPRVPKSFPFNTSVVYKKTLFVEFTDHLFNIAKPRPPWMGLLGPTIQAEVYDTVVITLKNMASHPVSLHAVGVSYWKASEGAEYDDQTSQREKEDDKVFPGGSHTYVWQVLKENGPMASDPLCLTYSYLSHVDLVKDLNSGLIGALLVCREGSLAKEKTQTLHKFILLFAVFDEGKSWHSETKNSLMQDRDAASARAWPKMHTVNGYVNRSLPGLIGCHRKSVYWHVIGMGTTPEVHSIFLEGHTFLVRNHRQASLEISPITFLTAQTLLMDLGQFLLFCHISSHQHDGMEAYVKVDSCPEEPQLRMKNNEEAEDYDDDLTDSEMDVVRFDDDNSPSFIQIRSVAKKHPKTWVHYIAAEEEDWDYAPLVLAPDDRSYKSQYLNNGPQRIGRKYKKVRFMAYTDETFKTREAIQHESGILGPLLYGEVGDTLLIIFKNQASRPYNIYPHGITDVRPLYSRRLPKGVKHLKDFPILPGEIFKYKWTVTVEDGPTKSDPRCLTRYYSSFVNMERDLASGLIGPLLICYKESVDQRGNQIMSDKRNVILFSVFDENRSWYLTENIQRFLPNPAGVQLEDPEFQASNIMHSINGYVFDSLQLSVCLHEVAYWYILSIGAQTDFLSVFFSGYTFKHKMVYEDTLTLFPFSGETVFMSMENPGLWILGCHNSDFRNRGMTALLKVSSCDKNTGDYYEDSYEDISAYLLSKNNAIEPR
Coagulation factor IX/VIII, sequence (P00451 1668-2351 limits assumed): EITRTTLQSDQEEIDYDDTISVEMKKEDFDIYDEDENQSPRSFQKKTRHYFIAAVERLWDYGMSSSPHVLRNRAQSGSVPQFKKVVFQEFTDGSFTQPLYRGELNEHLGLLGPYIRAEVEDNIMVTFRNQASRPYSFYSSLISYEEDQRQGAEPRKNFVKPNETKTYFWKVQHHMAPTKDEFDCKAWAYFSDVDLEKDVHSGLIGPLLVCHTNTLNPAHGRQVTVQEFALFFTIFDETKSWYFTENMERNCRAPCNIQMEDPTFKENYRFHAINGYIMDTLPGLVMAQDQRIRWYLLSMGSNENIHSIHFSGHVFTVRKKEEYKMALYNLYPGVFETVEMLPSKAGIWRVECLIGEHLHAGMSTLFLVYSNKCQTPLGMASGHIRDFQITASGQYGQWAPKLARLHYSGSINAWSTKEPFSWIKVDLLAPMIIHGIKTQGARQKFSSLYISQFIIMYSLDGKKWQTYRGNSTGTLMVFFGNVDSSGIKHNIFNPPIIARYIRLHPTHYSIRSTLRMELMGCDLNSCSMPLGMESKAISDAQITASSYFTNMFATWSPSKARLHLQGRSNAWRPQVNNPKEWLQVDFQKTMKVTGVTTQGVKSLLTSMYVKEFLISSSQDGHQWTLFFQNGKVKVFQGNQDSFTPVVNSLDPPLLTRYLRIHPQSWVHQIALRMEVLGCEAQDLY
Coagulation factor IX/VIII, sequence (P00740 47-191 limits assumed): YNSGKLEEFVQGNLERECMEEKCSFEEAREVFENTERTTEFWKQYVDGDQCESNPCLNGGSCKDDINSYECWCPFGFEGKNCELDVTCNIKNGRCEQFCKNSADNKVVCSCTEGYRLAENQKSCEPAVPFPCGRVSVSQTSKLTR
Coagulation factor IX/VIII, sequence (P00740 227-461 limits assumed): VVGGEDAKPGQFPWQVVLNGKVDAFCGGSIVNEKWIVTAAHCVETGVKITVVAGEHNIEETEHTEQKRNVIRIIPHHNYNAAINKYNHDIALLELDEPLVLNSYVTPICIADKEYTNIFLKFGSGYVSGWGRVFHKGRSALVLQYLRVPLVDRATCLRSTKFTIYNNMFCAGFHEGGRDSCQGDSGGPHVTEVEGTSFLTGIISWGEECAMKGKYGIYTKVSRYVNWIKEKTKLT

Plasma [4] = experiment: Anticoagulant activity in human plasma assessed as concentration required for increase in clotting time after 2 mins by PT assay; assay type: functional
Plasma [5] = experiment: Anticoagulant activity in human plasma assessed as concentration required for increase in clotting time after 2 mins by TT assay; assay type: functional
[6] = target: Prothrombin (Homo sapiens) (UniProt P00734); experiment: Inhibition of antithrombin-dependant factor 2a (unknown origin) activity at 2000 ng/ml preincubated for 2 mins followed by chromogenic substrate CS-01 addition measured every 30 secs for 5 mins relative to control

Coagulation factor X (Bos taurus), sequence (P00743 41-180 limits assumed): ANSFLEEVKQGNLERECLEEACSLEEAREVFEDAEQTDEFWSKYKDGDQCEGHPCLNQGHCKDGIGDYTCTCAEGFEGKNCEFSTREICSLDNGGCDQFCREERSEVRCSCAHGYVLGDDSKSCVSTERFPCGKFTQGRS
Coagulation factor X (Bos taurus), sequence (P00743 234-492 limits assumed): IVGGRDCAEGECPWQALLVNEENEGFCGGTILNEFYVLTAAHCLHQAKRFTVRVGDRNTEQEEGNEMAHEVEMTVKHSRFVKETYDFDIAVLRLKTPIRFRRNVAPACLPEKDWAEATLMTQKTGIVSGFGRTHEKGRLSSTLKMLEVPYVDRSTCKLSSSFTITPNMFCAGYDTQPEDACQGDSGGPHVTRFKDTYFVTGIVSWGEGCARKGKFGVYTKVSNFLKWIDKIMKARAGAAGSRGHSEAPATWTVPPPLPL

inhibition [1] [%] | IC50 [3] [nM] | inhibition [6] [%] | SMILES | 2aPTT (Plasma [2]) [µg/mL] | 2PT (Plasma [4]) [µg/mL] | 2TT (Plasma [5]) [µg/mL]
< 10 | 98.7 | < 10 | CC(=O)N[C@H]1[C@H](O[C@@H]([C@H](O[C@@H]2O[C@@H](C)[C@@H](OS(=O)(=O)[O-])[C@@H](O)[C@@H]2OS(=O)(=O)[O-])[C@@H](O)CO)[C@H](O)C(=O)[O-])O[C@H](COS(=O)(=O)[O-])[C@H](OS(=O)(=O)[O-])[C@@H]1O[C@@H]1O[C@H](C(=O)[O-])[C@@H](O[C@@H]2O[C@H](COS(=O)(=O)[O-])[C@H](OS(=O)(=O)[O-])[C@H](O[C@@H]3OC(C(=O)[O-])=C[C@H](O[C@@H]4O[C@@H](C)[C@@H](OS(=O)(=O)[O-])[C@@H](O)[C@@H]4OS(=O)(=O)[O-])[C@H]3O)[C@H]2NC(C)=O)[C@H](O[C@@H]2O[C@@H](C)[C@@H](OS(=O)(=O)[O-])[C@@H](O)[C@@H]2OS(=O)(=O)[O-])[C@H]1O.[Na+].[Na+].[Na+].[Na+].[Na+].[Na+].[Na+].[Na+].[Na+].[Na+].[Na+].[Na+].[Na+] | 14.43 | >128 | >128
< 10 | 1150 | < 10 | CC(=O)N[C@H]1[C@H](O[C@@H]([C@H](O[C@@H]2O[C@@H](C)[C@@H](OS(=O)(=O)[O-])[C@@H](O)[C@@H]2OS(=O)(=O)[O-])[C@@H](O)CO)[C@H](O)C(=O)[O-])O[C@H](COS(=O)(=O)[O-])[C@H](OS(=O)(=O)[O-])[C@@H]1O[C@@H]1OC(C(=O)[O-])=C[C@H](O[C@@H]2O[C@@H](C)[C@@H](OS(=O)(=O)[O-])[C@@H](O)[C@@H]2OS(=O)(=O)[O-])[C@H]1O.[Na+].[Na+].[Na+].[Na+].[Na+].[Na+].[Na+].[Na+] | 106.9 | >128 | >128
< 10 | 2420 | < 10 | CC(=O)N[C@@H](CO)[C@@H](O[C@@H]1OC(C(=O)[O-])=C[C@H](O[C@@H]2O[C@@H](C)[C@@H](OS(=O)(=O)[O-])[C@@H](O)[C@@H]2OS(=O)(=O)[O-])[C@H]1O)[C@@H](OS(=O)(=O)[O-])[C@H](O)COS(=O)(=O)[O-].[Na+].[Na+].[Na+].[Na+].[Na+] | >128 | >128 | >128
